This assay has as its system human living fibroblast-derived 253G1 iPS cell strain. Kind of assay: Physical cell length (cell thickness) by reflecting quantitative phase microscope. The format is cell-based. To be noted: 253G1 iPS cells on feeder, medium with 12.5 μM retinoic acid from 2nd day after seeding, further cultured 4 days (differentiated cell). The method, then:
On a 35 mm-diameter glass bottom dish with antireflection coating, a human living fibroblast-derived 253G1 iPS cell strain was seeded at 10-20 colonies/dish, and cultured on a feeder using a medium containing a final concentration of 4 ng/mL of human basic fibroblast growth factor (Primate ES Medium, ReproCELL Incorporated, Trade name: RCHEMD001). The size of one colony was approximately 200 μm. For the feeder cell, a mouse lung fibroblast cell was used. The cell was cultured until the 3rd day after the seeding. The medium was exchanged once a day.
The sample for differentiation of the iPS cell was transferred to a medium containing a final concentration of 4 ng/mL of human basic fibroblast growth factor and 12.5 μM of retinoic acid (Primate ES Medium) on the 2nd day after the seeding, and further cultured for 4 days. Generally, retinoic acid is used as a reagent for inducing differentiation. […]
For the cells in a 60 μm×80 μm visual field, three-dimensional data was obtained at intervals of 0.125 μm in horizontal direction and 0.32 μm in vertical direction using a reflecting quantitative phase microscope, and a tomographic image was produced from the obtained data. […] From the obtained bottom and surface shapes, a cell thickness (physical length) was measured to calculate a mean value.

In the case of `CC1=C(/C=C/C(C)=C/C=C/C(C)=C/C(=O)O)C(C)(C)CCC1` [retinoic acid], the “Mean value of the physical cell length” value is 6.25 μm.

These data come from patent US20150219543A1, “CELL EVALUATION METHOD” (HAMAMATSU PHOTONICS K.K., priority 2014, published 2015).
